Source: PMC5133449, “Peripheral self-reactivity regulates antigen-specific CD8 T-cell responses and cell division under physiological conditions” (Open Biology, 2016)
Entries after “also recorded” stand apart in the source; their conditions may differ.

Legend:
[1] = target: Rop7-III TCR; assay: SPR affinity of H-2 L^d-peptide complexes for immobilised recombinant Rop7-III TCR (BIAcore 3000); assay type: binding, mouse; conditions: peptide loaded in H-2 L^d as analyte, 1 to 200 µM, 25°C, biotinylated TCR on streptavidin CM5 chip, equilibrium model, at least duplicates; read-out: dissociation constant Kd
Protocol: (§1) Figure 2. Binding of Rop7-I, -II and -III to Rop7 peptide variants. (a) Splenocytes from WT or Rop7-I, -II and -III heterozygous mice were stained for CD8 and with H-2 L^d tetramers loaded with the indicated peptides. Histograms show H-2 L^d-Rop7 variants staining on CD8 T cells from WT or Rop7 mice. (b) TCRs from Rop7-I, -II and -III T cells were recombinantly expressed and refolded. Binding affinities for IPAAAGRFF-, IPAFAGRFF- and IPANAGRFF-loaded H-2 L^d were measured with a BIAcore 3000 and analysed using an equilibrium model. The raw data (black lines), fits (red lines) and calculated dissociation constant are shown in each panel.
For the Rop7-I, -II and -III TCRs, the α and β chains were cloned individually in the bacterial expression vector pET28a. Residues threonine 46 of the α chain's and serine 57 of the β chain's constant regions were mutated to cysteine to enable non-native disulfide bridge formation within the heterodimer complex. A biotinylation sequence was introduced at the C terminus of the β chain. The chains were separately expressed in Escherichia coli. BL21-DE3 (pLysS) and obtained as inclusion bodies and dissolved in 8 M urea, 25 mM MES, 1 mM EDTA, 1 mM DTT at pH 6.0. […] The final response was calculated after subtracting the control cell response. […] Equilibrium Kd values were calculated by nonlinear curve fitting of background-subtracted data using PRISM software.

[2] = test system: CD8 T cells from Rop7-I mice; assay: Peptide-loaded H-2 L^d tetramer staining; assay type: cell-based, mouse; conditions: caged tetramer approach, H-2 L^d tetramers loaded with peptide, splenocytes, flow cytometry
Protocol: as §1
(§2) Purified anti-CD3 (clone 17A2) and anti-CD28 (clone 37.51) antibodies, fluorescently labelled Granzyme B (clone 16G6), CD3ɛ (clone 145-2C11), CD4 (clone GK1.5), CD8 (clone 53-6.7), CD45.1 (clone A20) specific antibodies were purchased from eBioscience. Biotinylated anti-CD4 (clone GK1.5), anti-CD19 (clone 1D3), fluorescently labelled CD25 (clone 7D4), CD44 (clone 1M7), CD69 (clone H1.2F3), TNFα (clone MP6-XT22) and actin (clone ab-5) specific antibodies were purchased from BD Biosciences. Fluorescently labelled CD5 (clone 53-7.3), CD28 (clone E18), CD62 L (clone mel-14), Ki-67 (clone 16A8) specific antibodies and Zombie Aqua (cat. no. 423101) were purchased from Biolegend. Fluorescently labelled anti-IFNγclone 9004) was purchased from Sigma. Anti-phospho-tyrosine residue (clone 4G10) was purchased from Millipore. Anti-phopho-ERK (Thr202/Tyr204) (D13.14.4E, cat. no. 4370) and anti-phospho-S6 (Ser235/236) (D57.2.2E, cat. no. 4858) were purchased from Cell Signalling Technology. Horseradish peroxidase-conjugated anti-mouse antibody was purchased from GE Healthcare (cat. no. NXA931). Horseradish peroxidase-conjugated goat anti-rabbit antibody was purchased from Southern Biotech (cat. no. 4041-05). CD8 T cells isolation kit (130-095-236) and anti-biotin beads (130-090-485) were purchased from Miltenyi and used according to the manufacturer's instructions. ELISA kits for the detection of mouse IL-2 (cat. no. 431001), IFNγ (cat. no. 430801) and TNFα (cat. no. 430901) were purchased from BioLegend. ELISA for mouse IgM (cat. no. 88-50470-22) and IgG (cat. no. 88-50400-22) were purchased from Ebioscience. Recombinant mouse GM-CSF (cat. no. 315-03), IL-2 (212-12) and IL-4 (cat. no. 214-14) were purchased from Peprotech. Carboxyfluorescein succinimidyl ester (CFSE) was purchased from Sigma (cat. no. 21888). Protease inhibitor cocktail was purchased from Roche (cat. no. 11836153001). H-2 L^d tetramers were produced and used as described elsewhere or obtained from the NIH tetramer facility. All peptides were produced by the MIT biopolymer facility through standard solid-phase peptide synthesis or purchased from Pepceuticals, UK.

[3] = test system: CD8 T cells from Rop7-II mice; assay: Peptide-loaded H-2 L^d tetramer staining; assay type: cell-based, mouse; conditions: caged tetramer approach, H-2 L^d tetramers loaded with peptide, splenocytes, flow cytometry
Protocol: as §1, §2

[4] = test system: CD8 T cells from Rop7-III mice; assay: Peptide-loaded H-2 L^d tetramer staining; assay type: cell-based, mouse; conditions: caged tetramer approach, H-2 L^d tetramers loaded with peptide, splenocytes, flow cytometry
Protocol: as §1, §2

[5] = test system: Rop7-I CD8 T cells; assay: T-cell proliferation (CFSE dilution) with peptide-loaded BMDC; assay type: cell-based, mouse; conditions: 1 or 0.01 µg/ml, 3 days
Description: (§3) Figure 4. Rop7 CD8 T cells proliferation and cytokine secretion upon Rop7 peptide variant stimulation. Sorted CD8^+ tetramer^+ T cells from pooled lymph nodes and spleen of Rop7-I, -II or -III heterozygous mice were labelled with CFSE and stimulated with BMDC loaded with Rop7 peptide variants at indicated concentrations. (a) Histograms show CFSE dilution on sorted CD8 T cells from Rop7-I, -II or -III mice stimulated with IPAAAGRFF peptide-loaded BMDC after 3 days of stimulation. (b) IL-2, TNFα and IFNγ concentration measured in culture supernatant after 3 days of stimulation. Mean of three technical replicates (T-cell stimulation). Error bars: standard deviation (n = 3). Representative of three independent experiments. (c) Bar histograms show the percentage of living cells (Zombie Aqua negative) after 3 days of stimulation with IPAAAGRFF-loaded BMDC. Mean of three technical replicates (T-cell stimulation). Error bars: standard deviation (n = 3). Representative of three independent experiments. (d) Histograms show CFSE dilution on sorted CD8 T cells from Rop7-I or -II heterozygous mice stimulated with IPANAGRFF peptide-loaded BMDC after 3 days of stimulation. (e) IL-2, TNFα and IFNγ concentration measured in culture supernatant after 3 days of stimulation. Mean of three technical replicates (T-cell stimulation). Error bars: standard deviation (n = 3). Representative of three independent experiments. (f) Bar histograms show the percentage of living cells (Zombie Aqua negative) after 3 days of stimulation with IPANAGRFF-loaded BMDC. *p < 0.05, **p < 0.01, ***p < 0.001 (Student's t-test).
(§4) Anti-CD3/28: plate-bound anti-CD3 (clone 17A2) and anti-CD28 (clone 37.51) at indicated concentrations in flat bottom 96-well plates in the presence of 10 ng ml^–1 recombinant mouse IL-2 when specified. BMDC: dendritic cells differentiated from bone marrow progenitors for 5–7 days in GM-CSF and IL-4 containing medium loaded with Rop7 peptide (final concentration 1 or 0.01 µg ml^−1). When indicated, 10–20 × 10^6 cells per millilitre were labelled in PBS 2.5 µM CFSE for 2 min at room temperature.

[6] = test system: Rop7-II CD8 T cells; assay: as above; assay type: cell-based, mouse; conditions: 1 or 0.01 µg/ml, 3 days
Description: as §3, §4

[7] = test system: Rop7-II CD8 T cells; assay: Cytokine secretion with peptide-loaded BMDC; assay type: cell-based, mouse; conditions: 1 or 0.01 µg/ml, supernatant after 3 days, ELISA or multiplex, n = 3 technical replicates
Description: as §3
(§5) Cytokine concentrations were measured by ELISA according to the manufacturer's instructions or by multiplex assay (Eve Technologies, Calgary, Alberta, Canada).

[8] = test system: Rop7-II CD8 T cells; assay: T-cell viability (Zombie Aqua) with peptide-loaded BMDC; assay type: cell-based, mouse; conditions: 3 days
Description: as §3, with “Representative of three independent experiments. (f) Bar histograms show the percentage of living cells (Zombie Aqua negative) after 3 days of stimulation with IPANAGRFF-loaded BMDC. *p < 0.05, **p < 0.01, ***p < 0.001 (Student's t-test).” left out

[9] = test system: Rop7-III CD8 T cells; assay: T-cell proliferation (CFSE dilution) with peptide-loaded BMDC; assay type: cell-based, mouse; conditions: 1 or 0.01 µg/ml, 3 days
Description: as §3, §4

[10] = test system: Rop7-III CD8 T cells; assay: Cytokine secretion with peptide-loaded BMDC; assay type: cell-based, mouse; conditions: 1 or 0.01 µg/ml, supernatant after 3 days, ELISA or multiplex, n = 3 technical replicates
Description: as §3, §5

[11] = test system: Rop7 CD8 T cells; conditions: BMDC loaded with Rop7 peptide 1 µg/ml, 72 h, then peptide-loaded target splenocytes 16–20 h
Protocol: A measure of 1–2 × 10^5 sorted CD4^+ or CD8^+ tetramers^+ cells from pooled spleen and lymph nodes of Rop7-I, -II or -III mice were stimulated in complete RPMI in 96-well round bottom plates together with 0.5 × 10^5 Rop7 peptide-loaded BMDC (final concentration 1 µg ml^−1). After 72 h, cells were harvested and incubated with 10^5 total cells of a 1 to 1 mixture of CFSE-labelled, Rop7 peptide-loaded CD45.1 BALB/c splenocytes (final concentration 1 µg ml^−1) and control, CFSE-labelled, DMSO-treated CD45.2 BALB/c splenocytes in 96-well round bottom plates. After 16–20 h the ratio of living (propidium iodide negative) CD45.1 versus CD45.2 cells was determined by flow cytometry.

| Sequence | Kd [1] | tetramer binding [2] | tetramer binding [3] | tetramer binding [4] | proliferation [5] | proliferation [6] | IL-2, TNFα and IFNγ production [7] | cell death / living cells [8] | proliferation [9] | IL-2, TNFα and IFNγ production [10] | cytotoxicity [11] |
| --- | --- | --- | --- | --- | --- | --- | --- | --- | --- | --- | --- |
| IPANAGRFF | > 200 µM | Rop7-I and -II, but not Rop7-III T cells bound | Rop7-I and -II, but not Rop7-III T cells bound | not Rop7-III T cells bound | able to proliferate upon stimulation | able to proliferate upon stimulation | produced significantly fewer cytokines; also recorded: equally poor ability to secrete cytokines | more prone to cell death at both peptide concentrations; also recorded: enhanced cell death compared with Rop7-I CD8 T cells | – | – | – |
| IPAAAGRFF | – | bound tetramers loaded with the nominal antigen (IPAAAGRFF), with little quantitative variation | slightly less avid than binding to Rop7-I or -III | bound tetramers loaded with the nominal antigen (IPAAAGRFF), with little quantitative variation | able to proliferate upon antigenic stimulation in a dose-dependent manner | able to proliferate upon antigenic stimulation in a dose-dependent manner | produced overall less IL-2, TNFα and IFNγ; also recorded: secreted significantly fewer cytokines compared with Rop7-I and -III CD8 T cells | significantly increased tendency to cell death at a lower degree of stimulation; also recorded: an increased proportion of cells died as the strength of stimulus decreased | able to proliferate upon antigenic stimulation in a dose-dependent manner | secreted increased amounts of IL-2 and IFNγ but not TNFα when compared with Rop7-I; also recorded: produced significantly more IL-2 and IFNγ, but not TNFα, compared with Rop7-I CD8 T cells | all Rop7 CD8 T cells were cytotoxic, albeit with subtle but notable differences |
| IPAFAGRFF | > 200 µM | only Rop7-II T cells bound | only Rop7-II T cells bound | only Rop7-II T cells bound | – | – | – | – | – | – | – |
